Source: patent US7811817B2, “Establishment of a human embryonic stem cell line using mammalian cells” (Reliance Life Sciences Pvt. Ltd., priority 2005, dated 2010)

Columns and labels:
[1] = test system: mouse ES cell-derived hepatocytes; test: In vitro hepatotoxicity model using hepatocytes differentiated from mouse ES cells, enzyme release into supernatant; format: cell-based; conditions: pretreatment 24 hr, 25 μM; 0.6% CCl4 for 180 minutes
Method: Hepatocytes were differentiated from mouse ES cells and exposed to carbon tetrachloride (0.6%) for 180 minutes in the absence and presence of N-acetylcysteine (NAC), an antioxidant (25 μM). Levels of the following enzymes were determined by biochemical methods: Panel A: SGOT; Panel B: SGPT; Panel C: ALP; and Panel D: LDH.
Mouse ES cells were differentiated into hepatocytes by the formation of EBs in a medium without LIF. After 4 days in suspension, 15-20 EBs were plated onto 35 mm culture dishes pre-coated with 1% matrigel (BD Biosciences, USA), and allowed to differentiate for 20-25 days. Concentration of growth factors, cytokines (e.g., bone morphogenetic proteins (BMP2 and BMP4), hepatocyte growth factor (HGF), acidic-fibroblast growth factor (aFGF), and basic-FGF (bFGF)) and corticosteroids (e.g., dexamethasone) were optimized for hepatic differentiation. The differentiated cells obtained were confirmed to be hepatocytes by checking the positive expression of hepatic markers by RT-PCR and immunocytochemistry. […]
The cell supernatant was used for the determination of SGPT, SGOT, ALP, and LDH levels, per the manufacturer's protocol. […] The samples were analyzed using a Konelab-20i autoanalyser (Thermo Clinical Lab Systems, Finland). The levels were expressed as units/Liter.

[2] = test system: HepG2, a human hepatocarcinoma cell line; test: Exposure of HepG2 cells to carbon tetrachloride, enzyme release into supernatant (hepatotoxicity model); format: cell-based

Row | Compound | effect on CCl4-induced increase in release of SGOT, SGPT, ALP and LDH [1] | time of maximum release of SGOT, SGPT, ALP and LDH ([2]; 0.6% CCl4) [min] | SGOT, SGPT, ALP and LDH levels (enzyme release, hepatocyte damage) ([2]; 0.6% CCl4, exposure 30-240 minutes, cell supernatant)
1 | CC(=O)N[C@@H](CS)C(=O)O [N-acetylcysteine] | effectively blocked the increase in the release of these enzymes | – | –
2 | ClC(Cl)(Cl)Cl [CCl4, carbon tetrachloride] | – | 180 | time-dependent increases
